From the supplement of paper PMC4862054

What was measured:
Assay in all cases: drug sensitivity score (DSS), CellTox Green (DSS (AUC-based score)); higher = stronger drug effect (viability inhibition or cytotoxicity); extreme values may be limits of the assay
Settings in all cases: incubation time: 72 h
[1] = system: MDA-MB-468
How it was run: (§1)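 The area under the fitted dose-response curve was used to calculate the drug sensitivity score. Cells from breast cancer lines were incubated for 72 h in 384-well plates with compound at 5 concentrations spaced 10-fold over a 10,000-fold range specific to each compound. Plates were read for CellTox Green and then CellTiter-Glo, and normalised to 0.1 % DMSO and a positive kill control.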

[2] = system: MCF-10A
How it was run: as §1

[3] = system: BT-474
How it was run: as §1

[4] = system: MDA-MB-231
How it was run: as §1

[5] = system: HDQ-P1
How it was run: as §1

[6] = system: CAL-51
How it was run: as §1

[7] = system: BT-549
How it was run: as §1

[8] = system: MDA-MB-453
How it was run: as §1

[9] = system: CAL-120
How it was run: as §1

[10] = system: MFM-223
How it was run: as §1

[11] = system: HCC1143
How it was run: as §1

[12] = system: CAL-85-1
How it was run: as §1

[13] = system: DU-4475
How it was run: as §1

[14] = system: MDA-MB-436
How it was run: as §1

[15] = system: CAL-148
How it was run: as §1

[16] = system: Hs578T
How it was run: as §1

[17] = system: HCC1599
How it was run: as §1

Compound	drug sensitivity score [1]	drug sensitivity score [2]	drug sensitivity score [3]	drug sensitivity score [4]	drug sensitivity score [5]	drug sensitivity score [6]	drug sensitivity score [7]	drug sensitivity score [8]	drug sensitivity score [9]	drug sensitivity score [10]	drug sensitivity score [11]	drug sensitivity score [12]	drug sensitivity score [13]	drug sensitivity score [14]	drug sensitivity score [15]	drug sensitivity score [16]	drug sensitivity score [17]
Cc1sc2c(c1C)C(c1ccc(Cl)cc1)=N[C@@H](CC(=O)OC(C)(C)C)c1nnc(C)n1-2 [(+)JQ1]	8.47	0	0	0	0	6.31	0	0	1.56	0	0	8.47	1.14	0	6.55	0	0
Nc1ncn([C@@H]2O[C@H](CO)[C@@H](O)[C@H]2O)c(=O)n1 [Azacitidine]	0.523	0	1.95	0	0	0	0	0	0	0	0	0	0	1.61	0	0	0
CC1(C)CNc2cc(NC(=O)c3cccnc3NCc3ccncc3)ccc21 [Motesanib]	0	0	0	0	0	0	0	0	0	0	0	0	0	0	0	0	0
CC(=O)N(O)CCCCCNC(=O)CCC(=O)N(O)CCCCCNC(=O)CCC(=O)N(O)CCCCCN [Deferoxamine]	0	0	0	0	0	4.29	0	0	0	0	0	0	0	0	7.47	0	0
CC1=C2C[C@H]3[C@@H](CC=C4C[C@@H](O)CC[C@@]43C)[C@@H]2CC[C@]12O[C@@H]1C[C@H](C)CN[C@H]1[C@H]2C [Cyclopamine]	0	0	0	0	0	0	0	0	0	0	2.47	0	0	0	0	0	0
CC(=O)O[C@@]12CO[C@@H]1C[C@H](O)[C@@]1(C)C(=O)[C@H](O)C3=C(C)[C@@H](OC(=O)[C@H](O)[C@@H](NC(=O)OC(C)(C)C)c4ccccc4)C[C@@](O)([C@@H](OC(=O)c4ccccc4)[C@H]21)C3(C)C [Docetaxel]	0	19.1	11.8	31	6.92	26.2	11.4	0	0.904	10.2	5.08	25.5	0	0	0	19.2	0
COc1cc(F)c(F)c(Nc2ccc(I)cc2F)c1NS(=O)(=O)C1(C[C@H](O)CO)CC1 [Refametinib]	6.47	0	0	16.3	0	0	0	0	0.239	0	0	12.3	8.58	0	0	0	0
Cc1ccc([N+](=O)[O-])cc1S(=O)(=O)N(C)/N=C/c1cnc2ccc(Br)cn12 [PIK-75]	19.6	32.7	20.3	40	11.6	36.9	16.9	7.11	2.85	12.3	9.38	25.2	7.23	0	0	25.2	7.69
Nc1nc2[nH]cnc2c(=S)[nH]1 [Thioguanine]	0	0	0	0	0	0	0	0	0	0	0	0	0	0	0	0	0
C[C@]1(O)C[C@@H](c2nc(-c3ccc4ccc(-c5ccccc5)nc4c3)c3c(N)nccn32)C1 [Linsitinib]	0	0	0	4.69	0	0	0	0	0	0	0	0	0	14.3	0	2.22	0
CC1(C)CCC(CN2CCN(c3ccc(C(=O)NS(=O)(=O)c4ccc(NCC5CCOCC5)c([N+](=O)[O-])c4)c(Oc4cnc5[nH]ccc5c4)c3)CC2)=C(c2ccc(Cl)cc2)C1 [ABT-199]	13.3	0	0	3.14	0	0	1.45	0	0.378	0	0	0	0	0	0	0	0
Cn1cnc2c(F)c(Nc3ccc(Br)cc3Cl)c(C(=O)NOCCO)cc21 [Selumetinib]	6.94	0	0	13.2	2.06	0	0	0	2	0	0	0	8.17	0	0	0	0
